In patent US9617253B2, “Molecules having pesticidal utility, and intermediates, compositions, and processes, related thereto” (Dow AgroSciences LLC, priority 2015, dated 2017):

Key:
Format in all cases: in vivo
[1] = system: Yellow Fever Mosquito (Aedes aegypti, AEDSAE); settings: about 1 day-old larvae, from 4000 ppm DMSO master plate, room temperature, scored after 3 days
Description: Certain molecules disclosed in this document were tested against YFM using procedures described in the following paragraph. In the reporting of the results, the “YFM Rating Table” was used (See Table Section).
Master plates containing 400 μg of a molecule dissolved in 100 μL of dimethyl sulfoxide (DMSO) (equivalent to a 4000 ppm solution) are used. A master plate of assembled molecules contains 15 μL per well. To this plate, 135 μL of a 90:10 water/acetone mixture is added to each well. A robot (Biomek® NXP Laboratory Automation Workstation) is programmed to dispense 15 μL aspirations from the master plate into an empty 96-well shallow plate (“daughter” plate). There are 6 reps (“daughter” plates) created per master. The created “daughter” plates are then immediately infested with YFM larvae.
The day before plates are to be treated, mosquito eggs are placed in Millipore water containing liver powder to begin hatching (4 g into 400 mL). After the “daughter” plates are created using the robot, they are infested with 220 μL of the liver powder/larval mosquito mixture (about 1 day-old larvae). After plates are infested with mosquito larvae, a non-evaporative lid is used to cover the plate to reduce drying. Plates are held at room temperature for 3 days prior to grading. After 3 days, each well is observed and scored based on mortality. The results are indicated in the table entitled “Table ABC: Biological Results” (See Table Section).

[2] = system: Cabbage Looper (Trichoplusia ni, TRIPNI); assay: Bioassay on Cabbage Looper (CL), 128-well diet tray assay; settings: 168 h, second instar CL larvae, 50 μg/cm^2 on artificial diet, 25° C., five to seven days, average of eight wells, read-out: CL % Control (or Mortality) rating
Description: (§1) Certain molecules disclosed in this document were tested against BAW and CL using procedures described in the following examples. In the reporting of the results, the “BAW & CL Rating Table” was used (See Table Section).
Bioassays on CL were conducted using a 128-well diet tray assay. One to five second instar CL larvae were placed in each well (3 mL) of the diet tray that had been previously filled with 1 mL of artificial diet to which 50 μg/cm^2 of the test molecule (dissolved in 50 μL of 90:10 acetone-water mixture) had been applied (to each of eight wells) and then allowed to dry. Trays were covered with a clear self-adhesive cover, vented to allow gas exchange, and held at 25° C., 14:10 light-dark for five to seven days. Percent mortality was recorded for the larvae in each well; activity in the eight wells was then averaged. The results are indicated in the table entitled “Table ABC: Biological Results” (See Table Section).

[3] = system: Beet Armyworm (Spodoptera exigua, LAPHEG); assay: Bioassay on Beet Armyworm (BAW), 128-well diet tray assay; settings: 168 h, second instar BAW larvae, 50 μg/cm^2 on artificial diet, 25° C., five to seven days, average of eight wells, read-out: BAW % Control (or Mortality) rating
Description: as §1
Bioassays on BAW were conducted using a 128-well diet tray assay. One to five second instar BAW larvae were placed in each well (3 mL) of the diet tray that had been previously filled with 1 mL of artificial diet to which 50 μg/cm^2 of the test molecule (dissolved in 50 μL of 90:10 acetone-water mixture) had been applied (to each of eight wells) and then allowed to dry. Trays were covered with a clear self-adhesive cover, vented to allow gas exchange, and held at 25° C., 14:10 light-dark for five to seven days. Percent mortality was recorded for the larvae in each well; activity in the eight wells was then averaged. The results are indicated in the table entitled “Table ABC: Biological Results” (See Table Section).

Compound	YFM % Control (or Mortality) rating [1]	mortality at 50 µg/cm2 [2]	mortality at 50 µg/cm2 [3]
COCc1ccc(C)cc1N1C(=O)CS/C1=N\C(=O)Nc1ccc(COc2ncn(-c3ccc(OC(F)(F)F)cc3)n2)c(F)c1 [F9, (Z)-1-(3-Fluoro-4-(((1-(4-(trifluoromethoxy)phenyl)-1H-1,2,4-triazol-3-yl)oxy)methyl)phenyl)-3-(3-(2-(methoxymethyl)-5-methylphenyl)-4-oxothiazolidin-2-ylidene)urea]	A (80-100)	50 to 100%	50 to 100%
CCCc1ccc(C)cc1N1C(=O)CS/C1=N\C(=O)Nc1ccc(COc2ncn(-c3ccc(OC(F)(F)F)cc3)n2)cc1 [F5, (Z)-1-(3-(5-Methyl-2-propylphenyl)-4-oxothiazolidin-2-ylidene)-3-(4-(((1-(4-(trifluoromethoxy)phenyl)-1H-1,2,4-triazol-3-yl)oxy)methyl)phenyl)urea]	A (80-100)	50 to 100%	50 to 100%
Cc1ccc(C(C)C)c(N2C(=O)CS/C2=N\C(=O)Nc2cc(F)c(OCc3ncn(-c4ccc(OC(F)(F)F)cc4)n3)c(F)c2)c1 [F41, (Z)-1-(3,5-Difluoro-4-((1-(4-(trifluoromethoxy)phenyl)-1H-1,2,4-triazol-3-yl)methoxy)phenyl)-3-(3-(2-isopropyl-5-methylphenyl)-4-oxothiazolidin-2-ylidene)urea]	A (80-100)	50 to 100%	50 to 100%
CCCc1ccc(C)cc1N1C(=O)CS/C1=N\C(=O)Nc1ccc(OCc2ncn(-c3ccc(OC(F)(F)F)cc3)n2)cc1 [F17, (Z)-1-(3-(5-Methyl-2-propylphenyl)-4-oxothiazolidin-2-ylidene)-3-(4-((1-(4-(trifluoromethoxy)phenyl)-1H-1,2,4-triazol-3-yl)methoxy)phenyl)urea]	A (80-100)	50 to 100%	50 to 100%
COCc1ccc(C)cc1N1C(=O)CS/C1=N\C(=O)Nc1ccc(COc2ncn(-c3ccc(OC(F)(F)F)cc3)n2)cc1 [F8, (Z)-1-(3-(2-(Methoxymethyl)-5-methylphenyl)-4-oxothiazolidin-2-ylidene)-3-(4-(((1-(4-(trifluoromethoxy)phenyl)-1H-1,2,4-triazol-3-yl)oxy)methyl)phenyl)urea]	A (80-100)	50 to 100%	50 to 100%
